The test system of the experiment is T1, LkAlt1.
T1 construct: ORF amplified from genomic DNA into pET-28a(+) (NheI/XhoI), His-tagged, E. coli Rosetta2(DE3), Ni-NTA; tag removal not mentioned; about 50 kDa on SDS-PAGE
The experiment can be described thus: initial velocities at […] nm (lactate dehydrogenase/NADH coupled), global ping-pong fit. The settings on record: alanine varied 1-20 mM, α-ketoglutarate 0.05-1.50 mM; Tris-HCl about pH 7, 25°C; pyridoxal 5'-phosphate; ka/kb assigned to substrates by concentration ranges and text. It is filed as biochemical, Lachancea kluyveri.

As usually defined, the Km is the substrate concentration at which the rate is half of its maximum.

For `C[C@H](N)C(=O)O` [alanine], the “ka” value is listed as 4.88 mM. Regarding `O=C(O)CCC(=O)C(=O)O` [α-ketoglutarate], the Km amounted to 220 µM.

For the origin of these results see paper PMC5483587 (Frontiers in Microbiology, 2017).
